Test results published in patent publication US9254268B2, “Compositions comprising lipophilic active compounds and method for their preparation” (SOLUBEST LTD., priority 2007, dated 2016).
Blank lines part the entries; values can stand above or below the compound they belong to.

Legend:
[1] = Albendazole dissolution in 0.05 M sodium lauryl sulfate; assay type: physicochemical; conditions: after 15 min
Description: (iv) The dissolution test was performed in accordance with USP Dissolution Method <711> and FDA Dissolution Methods for Drug Products using the paddle apparatus Distek model 2100A. The quantification was performed using UV spectrophotometer. Appropriate amount of spray dried powders or tablets as well as control powders or tablets were dissolved in 1000 ml of 0.05 M water solution of sodium lauryl sulfate, at 37° C., […]

[2] = Thermal properties by Differential Scanning Calorimetry (DSC); conditions: for melting enthalpy (melting energy) / melting temperature (endothermic peak): DSC, after preparation
[3] = Particle size of aqueous dispersions by Dynamic Light Scattering; assay type: physicochemical; conditions: powder suspended in water
Description: (vii) Particle size of the nanodispersions: measurements were performed using Dynamic Light Scattering (DLS). The method was run on the Malvern Zen 3600, Zetasizer-nano series. The samples were prepared by suspending spray-dried powder in water (0.075-0.1%) at 25-30° C. First, water was added to the appropriate amount of the powder and the mixture was left for 15 min. Then, the suspension was magnetically stirred during 4 min at 300 rpm and 1 ml of the suspension was transferred to a cuvette for measurement. The cuvette was incubated inside the instrument during 5 min for stabilization prior measurement. A series of at least 5 repeating measurements was carried out at 25-30° C. Following parameters are reported from the analysis of volume weighed size distribution: polydispersity index (PDI), the diameter of the main fraction (Z-vol), volume % of main fraction.
The powders produced as described in Examples 1-9 have been suspended in deionized water as described in method (vii) of the section Materials and Methods.
In the Dynamic Light Scattering method, we used two main parameters to characterize the colloidal system: the hydrodynamic diameter of the particles and the width of distribution (polydispersity). […]

[4] = Dissolution of resveratrol in Model Fasted Duodenal Solution (MFDS); assay type: physicochemical
Description: The Model Fasted Duodenal Solution (MFDS) was prepared as follows: a mixture of sodium chloride (3.093 g), sodium hydrophosphate (1.719 g) and sodium taurocholate (0.8065 g) was dissolved in deionized water (300 g) using ultrasonic bath. Lecithin (0.2925 g) was dissolved in 2 ml methylene chloride and added to the buffered solution of sodium taurocholate. The resulting emulsion was stirred for 5 min and then methylene chloride was evaporated under vacuum. The obtained clear micellar solution was adjusted to the volume of 500 ml by deionized water.
For the test procedure, the test resveratrol formulations or raw resveratrol powder (10 mg) were placed into 2 ml microcentrifuge tube and MFDS (1.8 ml) was added to the each tube. The tubes were gently shaken (about 50 rpm) at 37° C. and samplings were taken at 10, 20, 40, 60 and 120 min. For this purpose, the tubes were vortexed at the highest speed for 60 seconds and then centrifuged at 13 000 G for 60 seconds. The solid-free supernatant (0.4 ml) was mixed with 0.4 ml diluent (30% water adjusted to pH 2.5 with phosphoric acid and 70% acetonitrile) and this solution was inserted into an HPLC instrument for determination of resveratrol concentration.

SMILES: CCCSc1ccc2nc(NC(=O)OC)[nH]c2c1 [Raw albendazole crystalline powder, Albendazole]
albendazole dissolved [1]: 16.6%
melting enthalpy (melting energy) [2]: 209.7 J/g
melting temperature (endothermic peak) [2]: around 215 °C

melting enthalpy (melting energy) [2]: 74.3 J/g
melting temperature (endothermic peak) [2]: around 82 °C
SMILES: CC(C)OC(=O)C(C)(C)Oc1ccc(C(=O)c2ccc(Cl)cc2)cc1 [Fenofibrate starting material, Fenofibrate]

broad DSC peak, range ([2]; after storage of six months, attributed to beginning of crystallization): 116-183 °C
SMILES: CC(C)c1c(C(=O)Nc2ccccc2)c(-c2ccccc2)c(-c2ccc(F)cc2)n1CC[C@@H](O)C[C@@H](O)CC(=O)O [Example 18, Atorvastatin]
kind of dispersion formed in water (observation) [3]: coarse suspensions with large visible particles

Concentration of resveratrol ([4]; 10 min, MFDS, 37° C.): 76.65 µg/mL
Concentration of resveratrol ([4]; 20 min): 103.15 µg/mL
Concentration of resveratrol ([4]; 40 min): 119.3 µg/mL
Concentration of resveratrol ([4]; 60 min): 121.05 µg/mL
Concentration of resveratrol ([4]; 120 min): 155.6 µg/mL
SMILES: Oc1ccc(C=Cc2cc(O)cc(O)c2)cc1 [Resveratrol raw powder, Resveratrol]
